The results in this text go back to patent US5721247A, “Isothiourea derivatives useful in therapy” (priority 1994, dated 1998).

The structures appear in SMILES notation.

The target of test [1] is T1, neuronal nitric oxide synthase (Rattus norvegicus, UniProt P29476).
T1 construct: Enzyme was isolated from rat hippocampus or cerebellum; from tissue; host or cells: cerebellum or hippocampus of male Sprague-Dawley rat (20,000 g supernatant)
The test is described as follows: Screen for neuronal nitric oxide synthase inhibiting activity (Screen A). Type of test: biochemical.
Procedure: (A) Screen for neuronal nitric oxide synthase inhibiting activity
Enzyme was isolated from rat hippocampus or cerebellum. The cerebellum or hippocampus of a male Sprague-Dawley rat (250-275 g) is removed following CO2 anaesthesia of the animal and decapitation. Cerebellar or hippocampal supernatant is prepared by homogenisation in 50 mM Tris-HCl with 1 mM EDTA buffer (pH 7.2 at 25° C.) and centifugation for 15 minutes at 20,000 g. Residual L-arginine is removed from the supernatant by chromatography through Dowex AG-50W-X8 sodium form and hydrogen form columns successively, and further centrifugation at 1000 g for 30 seconds.
For the assay, 25 μl of the final supernatant is added to each of 12 test tubes containing 25 μl L-arginine solution (of concentration 18 μM ^1 H-L-arginine, 96 nM ^3 H-L-arginine) and either 25 μl of an assay buffer (50 mM HEPES, 1 mM EDTA, 1.5 mM CaCl2, pH 7.4) or 25 μl of test compound in the buffer at 22° C. […]
(§1) Labelled L-citrulline is separated from labelled L-arginine by chromatography over a Dowex AG-50W-X8 200-400 mesh column. […] The L-citrulline is then quantified by scintillation counting. […]

Test [2] concerns the target T2, macrophage nitric oxide synthase (Mus musculus, UniProt P29477).
T2 construct: Nitric oxide synthase is produced by cells in response to interferon-γ (IFNγ) and lipopolysaccharide (LPS); endogenous in cells; host or cells: J774A-1 murine macrophage cell line, induced with LPS and IFN-gamma (cell lysate)
The test is described as follows: Screen for macrophage nitric oxide synthase inhibiting activity (Screen B). Type of test: biochemical, murine. The following applies: ratio of IC50 in Screen B (macrophage isoform) to IC50 in Screen A (neuronal isoform). The source says:
The enzyme nitric oxide synthase has a number of isoforms and compounds of formula I, and pharmaceutically acceptable salts thereof, may be screened for nitric oxide synthase inhibiting activity by procedures based on those of Bredt and Snyder in Proc. Natl. Acad. Sci. (1990) 87, 682-685 and Forstermann et. al., Eur. J. Pharm. (1992) 225, 161-165 as follows. Nitric oxide synthase converts ^3 H-L-arginine to ^3 H-L-citrulline which can be separated by cation exchange chromatography and quantified by scintillation counting.
(B) Screen for macrophage nitric oxide synthase inhibiting activity
Enzyme is prepared, after induction, from the cultured murine macrophage cell line J774A-1 (obtained from laboratories of the Imperial Cancer Research Fund). J774A-1 cells are cultured in Dulbecco's Modified Eagles Medium (DMEM) supplemented with 10% foetal bovine serum, 4 mM L-glutamine and antibiotics (100 units/ml penicillin G, 100 μg/ml streptomycin & 0.25 μg/ml amphotericin B). Cells are routinely grown in […] flasks containing 35 ml medium kept at 37° C. and in a humidified atmosphere containing 5% CO2.
Nitric oxide synthase is produced by cells in response to interferon-γ (IFNγ) and lipopolysaccharide (LPS). […]
Labelled L-citrulline is separated from labelled L-arginine using Dowex AG-50W. […] After allowing the samples to dry the L-citrulline is quantified by scintillation counting. […]

Test [3] deals with T3, endothelial nitric oxide synthase (Homo sapiens, UniProt P29474).
T3 construct: Enzyme may be isolated from human umbilical vein endothelial cells (HUVECs); host or cells: HUVEC (CHAPS-solubilised particulate fraction)
T3 sequence (P29474 2-1203): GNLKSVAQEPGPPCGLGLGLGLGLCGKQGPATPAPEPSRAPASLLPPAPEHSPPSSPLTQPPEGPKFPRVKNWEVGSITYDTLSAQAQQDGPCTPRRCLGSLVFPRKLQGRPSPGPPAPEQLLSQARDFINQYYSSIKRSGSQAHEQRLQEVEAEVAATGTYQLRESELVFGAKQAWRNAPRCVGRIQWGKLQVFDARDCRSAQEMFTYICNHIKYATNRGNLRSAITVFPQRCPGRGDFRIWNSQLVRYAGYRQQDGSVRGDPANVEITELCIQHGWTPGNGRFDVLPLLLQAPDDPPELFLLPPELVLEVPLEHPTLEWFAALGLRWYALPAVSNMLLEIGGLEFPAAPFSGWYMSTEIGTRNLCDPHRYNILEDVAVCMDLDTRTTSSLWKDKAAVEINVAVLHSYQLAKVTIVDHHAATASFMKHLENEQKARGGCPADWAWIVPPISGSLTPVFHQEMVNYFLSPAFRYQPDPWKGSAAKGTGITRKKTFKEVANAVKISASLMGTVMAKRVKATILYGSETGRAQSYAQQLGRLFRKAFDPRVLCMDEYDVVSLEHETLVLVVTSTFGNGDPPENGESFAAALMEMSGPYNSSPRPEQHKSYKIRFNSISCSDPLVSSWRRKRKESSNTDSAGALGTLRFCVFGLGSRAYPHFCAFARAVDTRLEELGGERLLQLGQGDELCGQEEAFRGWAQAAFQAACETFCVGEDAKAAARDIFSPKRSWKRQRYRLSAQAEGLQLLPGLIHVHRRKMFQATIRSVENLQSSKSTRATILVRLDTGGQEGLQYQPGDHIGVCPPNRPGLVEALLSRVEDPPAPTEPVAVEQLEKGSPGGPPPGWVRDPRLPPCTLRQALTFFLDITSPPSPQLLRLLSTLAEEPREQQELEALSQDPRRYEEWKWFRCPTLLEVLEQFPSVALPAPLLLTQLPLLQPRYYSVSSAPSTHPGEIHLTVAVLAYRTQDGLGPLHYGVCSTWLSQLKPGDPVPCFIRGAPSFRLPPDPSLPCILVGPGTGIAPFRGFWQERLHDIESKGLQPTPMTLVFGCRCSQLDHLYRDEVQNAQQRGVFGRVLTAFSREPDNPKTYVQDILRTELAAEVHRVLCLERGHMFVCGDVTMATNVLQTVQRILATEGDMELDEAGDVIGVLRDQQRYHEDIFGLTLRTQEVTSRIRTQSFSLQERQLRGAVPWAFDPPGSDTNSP
Briefly: Screen for endothelial nitric oxide synthase inhibiting activity (Screen C). The class given is biochemical.
Procedure: (C) Screen for endothelial nitric oxide synthase inhibiting activity
HUVECs were purchased from Clonetics Corp (San Diego, Calif., USA) and cultured to confluency. Cells can be maintained to passage 35-40 without significant loss of yield of nitric oxide synthase. When cells reach confluency, they are resuspended in Dulbecco's phosphate buffered saline, centrifuged at 800 rpm for 10 mins, the cell pellet homogenised in ice-cold 50 mM Tris-HCl, 1 mM EDTA, 10% glycerol, 1 mM phenylmethylsulphonylfluoride, 2 μM leupeptin at pH 4.2. Following centrifugation at 34,000 rpm for 60 mins, the pellet is solubilised in the homogenisation buffer which also contains 20 mM CHAPS. After a 30 min incubation on ice, the suspension is centrifuged at 34,000 rpm for 30 mins. The resulting supernatant is stored at -80° C. until use.
For the assay, 25 μl of the final supernatant is added to each of 12 test tubes containing 25 μl L-arginine solution (of concentration 12 μM ^1 H-L-arginine, 64 nM ^3 H-L-arginine) and either 25 μl of an assay buffer (50 mM HEPES, 1 mM EDTA, 1.5 mM CaCl2, pH 7.4) or 25 μl of test compound in the buffer at 22° C. […]
as §1

T1 sequence (P29476 whole entry): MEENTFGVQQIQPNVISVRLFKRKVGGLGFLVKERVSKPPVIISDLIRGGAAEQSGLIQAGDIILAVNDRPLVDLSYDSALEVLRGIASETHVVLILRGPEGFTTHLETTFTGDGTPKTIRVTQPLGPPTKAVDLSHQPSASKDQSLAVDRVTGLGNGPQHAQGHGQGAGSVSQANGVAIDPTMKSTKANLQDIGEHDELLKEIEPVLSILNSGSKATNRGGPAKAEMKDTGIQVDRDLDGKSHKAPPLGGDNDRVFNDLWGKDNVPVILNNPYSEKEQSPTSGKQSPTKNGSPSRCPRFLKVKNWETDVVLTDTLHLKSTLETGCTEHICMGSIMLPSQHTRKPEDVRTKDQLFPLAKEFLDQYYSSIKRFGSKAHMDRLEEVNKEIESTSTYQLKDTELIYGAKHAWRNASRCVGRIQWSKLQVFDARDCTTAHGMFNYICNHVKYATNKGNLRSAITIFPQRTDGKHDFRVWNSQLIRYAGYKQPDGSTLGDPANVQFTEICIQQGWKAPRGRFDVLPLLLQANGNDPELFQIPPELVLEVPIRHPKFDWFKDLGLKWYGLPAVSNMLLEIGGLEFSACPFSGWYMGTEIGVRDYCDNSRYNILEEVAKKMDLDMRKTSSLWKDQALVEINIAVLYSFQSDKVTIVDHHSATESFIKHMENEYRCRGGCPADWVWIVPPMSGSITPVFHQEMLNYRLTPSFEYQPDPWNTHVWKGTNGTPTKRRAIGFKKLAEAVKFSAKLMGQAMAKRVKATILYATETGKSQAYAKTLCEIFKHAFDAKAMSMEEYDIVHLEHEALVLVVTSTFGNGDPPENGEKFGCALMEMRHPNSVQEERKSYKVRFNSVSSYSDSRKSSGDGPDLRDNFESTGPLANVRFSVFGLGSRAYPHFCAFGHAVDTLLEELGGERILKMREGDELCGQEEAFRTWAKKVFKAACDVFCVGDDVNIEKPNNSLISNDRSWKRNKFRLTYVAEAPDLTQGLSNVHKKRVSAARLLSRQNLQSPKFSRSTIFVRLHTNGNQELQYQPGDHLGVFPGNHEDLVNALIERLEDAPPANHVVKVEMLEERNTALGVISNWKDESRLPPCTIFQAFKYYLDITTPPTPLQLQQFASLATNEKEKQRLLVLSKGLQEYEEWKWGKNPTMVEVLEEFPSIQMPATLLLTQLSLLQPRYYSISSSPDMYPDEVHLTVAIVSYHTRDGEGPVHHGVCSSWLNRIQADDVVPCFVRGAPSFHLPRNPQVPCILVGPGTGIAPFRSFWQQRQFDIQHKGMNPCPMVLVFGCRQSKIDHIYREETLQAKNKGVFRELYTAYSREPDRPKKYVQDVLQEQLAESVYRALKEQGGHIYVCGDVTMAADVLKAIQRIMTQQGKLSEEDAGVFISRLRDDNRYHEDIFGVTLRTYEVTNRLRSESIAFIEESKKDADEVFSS

A word on the IC50: it is the point on the concentration scale where inhibition reaches its midpoint. Low values mean greater potency in that assay, high ones weaker potency in that assay. With `CCSC(=N)Nc1ccc(CCN(C)Cc2ccccc2)cc1` [Example 1, N-(4-(2-((Phenylmethyl)(methyl)amino)ethyl)phenyl)carbamimidothioic acid ethyl ester], the 50% inhibitory concentration (IC50) in test [1] (Screen A, neuronal isoform, rat hippocampus or cerebellum supernatant) is below 10 µM. Also, the “IC50 values more than 10 times that obtained in Screen A” value in test [2] and in test [3] (ratio of IC50 in Screen C (endothelial isoform) to IC50 in Screen A (neuronal isoform)) was “more than 10 times” in each case.

In general, inhibition refers to the share of the control response that was lost under treatment. Lower therefore signals little suppression. Consider `N=C(NCCC[C@H](N)C(=O)O)N[N+](=O)[O-]` [N-nitro-L-arginine, reference compound], for which the inhibition at 1 µM in test [1] (reference standard at a concentration of 1 μM) is 60%; in test [3] (reference standard at a concentration of 1 μM, HUVEC enzyme) it was 70 to 90%.
